In PubChem BioAssay AID330 (DTP/NCI, 2004):
Values joined by “and” are separate entries in the source; they are usually repeats but may differ in a detail not shown here. Identical values can stand only once. Toxic doses and inconclusive results are not listed.

Tested on: P388 leukemia ip, CD2F1 mice, survival T/C
Assay: NCI In Vivo Anticancer Drug Screen. Data for tumor model P388 Leukemia (intraperitoneal) in CD2F1 (CDF1) mice
Settings: endpoint: median survival time, higher = longer survival
Procedure, shortened: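 Mice carrying the transplanted tumor received test compound or vehicle. Survival was recorded in each group, and the value is the treated-group measurement divided by that of the vehicle-treated control group.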

[1] = dose: 60.0 mg/kg/injection, schedule: Q01DX005 (ip), vehicle: saline with Tween-80
[2] = dose: 100.0 mg/kg/injection, schedule: Q01DX001 (ip), vehicle: saline with Tween-80
[3] = dose: 100.0 mg/kg/injection, schedule: Q04DX003 (ip), vehicle: saline with Tween-80
[4] = dose: 200.0 mg/kg/injection, schedule: Q01DX001 (ip), vehicle: saline with Tween-80
[5] = dose: 400.0 mg/kg/injection, schedule: Q01DX001 (ip), vehicle: saline with Tween-80
[6] = dose: 100.0 mg/kg/injection, schedule: Q01DX009 (ip), vehicle: Klucel (hydroxypropylcellulose) (HPC)
[7] = dose: 25.0 mg/kg/injection, schedule: Q01DX009 (ip), vehicle: Klucel (hydroxypropylcellulose) (HPC)
[8] = dose: 50.0 mg/kg/injection, schedule: Q01DX009 (ip), vehicle: Klucel (hydroxypropylcellulose) (HPC)
[9] = dose: 50.0 mg/kg/injection, schedule: Q01DX005 (ip), vehicle: Klucel (hydroxypropylcellulose) (HPC)
[10] = dose: 100.0 mg/kg/injection, schedule: Q01DX005 (ip), vehicle: Klucel (hydroxypropylcellulose) (HPC)
[11] = dose: 50.0 mg/kg/injection, schedule: Q01DX005 (ip), vehicle: saline with Tween-80
[12] = dose: 100.0 mg/kg/injection, schedule: Q01DX005 (ip), vehicle: saline with Tween-80
[13] = dose: 200.0 mg/kg/injection, schedule: Q01DX005 (ip), vehicle: saline with Tween-80
[14] = dose: 200.0 mg/kg/injection, schedule: Q04DX003 (ip), vehicle: saline with Tween-80
[15] = dose: 400.0 mg/kg/injection, schedule: Q04DX003 (ip), vehicle: saline with Tween-80

## Nc1ccc(S(=O)(=O)Nc2nc(/C=C/c3ccccc3)cc(-c3cc(/C=C/c4ccccc4)nc(NS(=O)(=O)c4ccc(N)cc4)n3)n2)cc1
[1]
  T/C: 94 % of control
dose: 120.0 mg/kg/injection, schedule: Q01DX005 (ip), vehicle: saline with Tween-80
  T/C: 95 % of control
dose: 240.0 mg/kg/injection, schedule: Q01DX005 (ip), vehicle: saline with Tween-80
  T/C: 94 % of control

## CN([NH-])C(=S)[S-].CN([NH-])C(=S)[S-].[Ni]
dose: 50.0 mg/kg/injection, schedule: Q04DX003 (ip), vehicle: Klucel (hydroxypropylcellulose) (HPC)
  T/C: 100 % of control
dose: 50.0 mg/kg/injection, schedule: Q04DX003 (ip), vehicle: saline with Tween-80
  T/C: 100 % of control
[2]
  T/C: 120 % of control
[3]
  T/C: 100 % of control
[4]
  T/C: 101 % of control
dose: 200.0 mg/kg/injection, schedule: Q04DX003 (ip), vehicle: Klucel (hydroxypropylcellulose) (HPC)
  T/C: 117 % of control
[5]
  T/C: 123 % of control

## CC1CC(c2ccc(Cl)cc2)C(c2ccc(Cl)cc2)C(=O)O1 (stereo unspecified)
[6]
  T/C: 90 % of control

## O=C(O)C(S)c1ccc2ccccc2c1 (stereo unspecified)
[6]
  T/C: 90 % of control
dose: 200.0 mg/kg/injection, schedule: Q01DX009 (ip), vehicle: Klucel (hydroxypropylcellulose) (HPC)
  T/C: 100 % of control

## Cc1ccc2c(ccc(CC(=S)[S-])[n+]2C)c1
[7]
  T/C: 114 % of control
[8]
  T/C: 120 % of control

## CC(C)(C)c1cc2c(c(C(C)(C)OC(=O)c3ccccc3)c1)SOC2(C)C
dose: 12.5 mg/kg/injection, schedule: Q01DX005 (ip), vehicle: saline
  T/C: 101 % of control
dose: 12.5 mg/kg/injection, schedule: Q01DX005 (ip), vehicle: suspension in saline
  T/C: 102 % of control
dose: 25.0 mg/kg/injection, schedule: Q01DX005 (ip), vehicle: saline
  T/C: 91 % of control
dose: 25.0 mg/kg/injection, schedule: Q01DX005 (ip), vehicle: suspension in saline
  T/C: 100 % of control
[9]
  T/C: 100 % of control
dose: 50.0 mg/kg/injection, schedule: Q01DX005 (ip), vehicle: saline
  T/C: 100 % of control
dose: 50.0 mg/kg/injection, schedule: Q01DX005 (ip), vehicle: suspension in saline
  T/C: 106 % of control
[10]
  T/C: 104 % of control
dose: 100.0 mg/kg/injection, schedule: Q01DX005 (ip), vehicle: saline
  T/C: 98 % of control
dose: 100.0 mg/kg/injection, schedule: Q01DX005 (ip), vehicle: suspension in saline
  T/C: 102 % of control

## CCOc1cc2c(cc1C(CC)c1ccc(OC)cc1)OCO2 (stereo unspecified)
[9]
  T/C: 104 % of control
[10]
  T/C: 104 % of control
dose: 200.0 mg/kg/injection, schedule: Q01DX005 (ip), vehicle: Klucel (hydroxypropylcellulose) (HPC)
  T/C: 99 % of control

## Cc1nc2ccccc2nc1CBr
dose: 5.56 mg/kg/injection, schedule: Q01DX009 (ip), vehicle: saline with Tween-80
  T/C: 110 % of control
dose: 8.33 mg/kg/injection, schedule: Q01DX009 (ip), vehicle: saline with Tween-80
  T/C: 120 % of control
dose: 18.7 mg/kg/injection, schedule: Q01DX009 (ip), vehicle: saline with Tween-80
  T/C: 120 % of control

## O=C(N/C(=C/c1ccc(Cl)cc1Cl)c1nc2ccccc2s1)c1ccccc1
[11]
  T/C: 109 % of control
[12]
  T/C: 111 % of control

## Cc1cccc(-n2nc(C(=O)O)c(=O)[nH]c2=O)c1
[2]
  T/C: 104 % of control
[4]
  T/C: 99 % of control
[5]
  T/C: 95 % of control

## NC(=O)NC(c1ccccc1)C(O)(c1ccccc1)c1ccccc1 (stereo unspecified)
dose: 50.0 mg/kg/injection, schedule: Q01DX009 (ip), vehicle: saline with Tween-80
  T/C: 87 % of control
dose: 100.0 mg/kg/injection, schedule: Q01DX009 (ip), vehicle: saline with Tween-80
  T/C: 93 % of control
dose: 200.0 mg/kg/injection, schedule: Q01DX009 (ip), vehicle: saline with Tween-80
  T/C: 96 % of control

## C=C1C(=O)O[C@H]2C3OC3(C)CC/C=C(/C(=O)OC)[C@@H](OC(C)=O)[C@H](OC(=O)C3(C)OC3C)[C@H]12 (stereo partly specified)
dose: 1.87 mg/kg/injection, schedule: Q01DX009 (ip), vehicle: Klucel (hydroxypropylcellulose) (HPC)
  T/C: 112 % of control
dose: 3.75 mg/kg/injection, schedule: Q01DX009 (ip), vehicle: Klucel (hydroxypropylcellulose) (HPC)
  T/C: 108 % of control
dose: 7.5 mg/kg/injection, schedule: Q01DX009 (ip), vehicle: Klucel (hydroxypropylcellulose) (HPC)
  T/C: 107 % of control

## CS(=O)(=O)O/C=C1\CCc2ccccc2C1=O
[11]
  T/C: 98 % of control
[12]
  T/C: 98 % of control
[13]
  T/C: 105 % of control

## CN(C)c1nc(N/N=C/c2ccc([N+](=O)[O-])cc2)nc(N(C)C)n1
[3]
  T/C: 98 % of control
[14]
  T/C: 105 % of control
[15]
  T/C: 93 % of control

## CNC(=O)N(C)N=NCCCl
[11]
  T/C: 175 % of control
dose: 52.5 mg/kg/injection, schedule: Q01DX005 (ip), vehicle: saline with Tween-80
  T/C: 161 % of control
[12]
  T/C: 196 % of control
dose: 105.0 mg/kg/injection, schedule: Q01DX005 (ip), vehicle: saline with Tween-80
  T/C: 181 % of control
[13]
  T/C: 297 % of control
dose: 210.0 mg/kg/injection, schedule: Q01DX005 (ip), vehicle: saline with Tween-80
  T/C: 297 % of control
dose: 400.0 mg/kg/injection, schedule: Q01DX005 (ip), vehicle: saline with Tween-80
  T/C: 99 % of control

## Cc1cccc2cc3ccccc3c[n+]12
dose: 6.25 mg/kg/injection, schedule: Q01DX005 (ip), vehicle: saline + Tween-80 + alcohol
  T/C: 101 % of control
dose: 12.5 mg/kg/injection, schedule: Q01DX005 (ip), vehicle: saline + Tween-80 + alcohol
  T/C: 101 % of control
dose: 25.0 mg/kg/injection, schedule: Q01DX005 (ip), vehicle: saline + Tween-80 + alcohol
  T/C: 101 % of control

## O=S(=O)(O)O.[NH-]C(c1ccccc1)C([NH-])c1ccccc1.[Pt+2] (stereo unspecified)
dose: 1.56 mg/kg/injection, schedule: Q04DX002 (ip), vehicle: saline
  T/C: 110 % of control
dose: 6.25 mg/kg/injection, schedule: Q04DX002 (ip), vehicle: saline
  T/C: 163 % of control
dose: 12.5 mg/kg/injection, schedule: Q04DX002 (ip), vehicle: saline
  T/C: 157 % of control and 173 % of control
dose: 25.0 mg/kg/injection, schedule: Q04DX002 (ip), vehicle: saline
  T/C: 153 % of control and 169 % of control and 185 % of control

## O=C(Nc1cc2cc([N+](=O)[O-])ccc2oc1=O)c1cccs1
dose: 15.0 mg/kg/injection, schedule: Q01DX005 (ip), vehicle: saline with Tween-80
  T/C: 99 % of control
dose: 30.0 mg/kg/injection, schedule: Q01DX005 (ip), vehicle: saline with Tween-80
  T/C: 90 % of control
[1]
  T/C: 91 % of control

## N#CCCCCCCCCCCCC1C=CCC1 (stereo unspecified)
dose: 100.0 mg/kg/injection, schedule: Q01DX001 (ip), vehicle: saline
  T/C: 100 % of control
dose: 200.0 mg/kg/injection, schedule: Q01DX001 (ip), vehicle: saline
  T/C: 98 % of control
dose: 400.0 mg/kg/injection, schedule: Q01DX001 (ip), vehicle: saline
  T/C: 100 % of control

## O=S(=O)(O)CC[S][Sn]([S]CCS(=O)(=O)O)([c]1ccccc1)[c]1ccccc1 (tested in a mixture with another compound)
dose: 1.87 mg/kg/injection, schedule: Q01DX005 (ip), vehicle: Klucel (hydroxypropylcellulose) (HPC)
  T/C: 121 % of control
dose: 3.75 mg/kg/injection, schedule: Q01DX005 (ip), vehicle: Klucel (hydroxypropylcellulose) (HPC)
  T/C: 152 % of control

## Nc1ccc(N=Nc2ccc(S(=O)(=O)O)cc2)cc1
[3]
  T/C: 95 % of control
[14]
  T/C: 100 % of control
[15]
  T/C: 100 % of control

## Clc1cc[c]([Sb]2([c]3ccc(Cl)cc3)([c]3ccc(Cl)cc3)[O]C(C(Cl)(Cl)Cl)[O]2)cc1 (stereo unspecified)
dose: 12.5 mg/kg/injection, schedule: Q01DX009 (ip), vehicle: Klucel (hydroxypropylcellulose) (HPC)
  T/C: 99 % of control
[7]
  T/C: 104 % of control
[8]
  T/C: 100 % of control and 95 % of control

## Cn1c2ccccc2c2cc3c(cc21)C(=O)OC3=O
dose: 3.12 mg/kg/injection, schedule: Q01DX005 (ip), vehicle: Klucel (hydroxypropylcellulose) (HPC)
  T/C: 100 % of control
dose: 6.25 mg/kg/injection, schedule: Q01DX005 (ip), vehicle: Klucel (hydroxypropylcellulose) (HPC)
  T/C: 93 % of control
dose: 12.5 mg/kg/injection, schedule: Q01DX005 (ip), vehicle: Klucel (hydroxypropylcellulose) (HPC)
  T/C: 90 % of control
[9]
  T/C: 88 % of control
[10]
  T/C: 90 % of control
